Experimental findings from patent US9085576B2 (AMGEN INC., priority 2013, dated 2015) are described below.

Bounds are passed on as bounds.

The target of test [1] is BACE (Homo sapiens (Human), UniProt P56817). The test can be described thus: In vitro BACE cell-based assay (Aβ40 in conditioned medium, sandwich ELISA).
Test [2] deals with Cathepsin D (Cat D) (Homo sapiens (Human), UniProt P07339). The test can be described thus: In vitro enzymatic Cathepsin D (Cat D) FRET assay. It counts as biochemical. Conditions: read-out: CatD IC50.
In test [3] the target is Beta Secretase enzyme (BACE) (Homo sapiens (Human), UniProt P56817). The test can be described thus: In vitro enzymatic BACE FRET assay. Conditions: read-out: BACE1 Enzyme assay IC50. It counts as biochemical.
Chain of Beta Secretase enzyme (BACE) (P56817 46-501): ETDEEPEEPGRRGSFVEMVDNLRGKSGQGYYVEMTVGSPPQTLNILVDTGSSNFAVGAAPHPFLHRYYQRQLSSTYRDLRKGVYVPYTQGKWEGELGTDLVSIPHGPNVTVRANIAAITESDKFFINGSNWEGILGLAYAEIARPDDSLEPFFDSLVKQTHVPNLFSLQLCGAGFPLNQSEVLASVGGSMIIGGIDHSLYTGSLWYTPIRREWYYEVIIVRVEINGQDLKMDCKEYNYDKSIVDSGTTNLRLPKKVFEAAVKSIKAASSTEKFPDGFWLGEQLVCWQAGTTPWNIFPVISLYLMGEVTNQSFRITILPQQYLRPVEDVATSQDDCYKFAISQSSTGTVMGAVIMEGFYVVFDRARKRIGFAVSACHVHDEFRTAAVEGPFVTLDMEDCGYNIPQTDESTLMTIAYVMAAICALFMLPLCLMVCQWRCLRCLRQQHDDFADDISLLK

Chain of Cathepsin D (Cat D) (P07339 65-412, species assumed): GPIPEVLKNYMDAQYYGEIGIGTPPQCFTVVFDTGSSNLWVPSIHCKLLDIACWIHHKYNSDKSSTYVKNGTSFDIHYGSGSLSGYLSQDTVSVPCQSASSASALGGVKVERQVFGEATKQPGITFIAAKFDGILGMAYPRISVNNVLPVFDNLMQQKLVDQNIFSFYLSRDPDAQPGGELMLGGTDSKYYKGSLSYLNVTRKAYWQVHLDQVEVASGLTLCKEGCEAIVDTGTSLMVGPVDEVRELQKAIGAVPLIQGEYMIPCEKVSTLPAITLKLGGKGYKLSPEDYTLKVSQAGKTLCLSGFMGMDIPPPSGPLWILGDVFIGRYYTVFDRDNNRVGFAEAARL
Chain of BACE (P56817 46-501, species assumed): as the sequence (P56817 46-501) above

As for `COc1ccc(C(=O)Nc2ccc(F)c([C@]3(CF)N=C(N)O[C@H]4C[C@H]43)c2F)nc1` [Example 78, N-(3-((1S,5R,6S)-3-amino-5-(fluoromethyl)-2-oxa-4-azabicyclo[4.1.0]hept-3-en-5-yl)-2,4-difluorophenyl)-5-methoxypicolinamide], the IC50 in test [1] was above 15.6 µM; in test [2] it was above 400 µM; in test [3] it was above 40 µM.

Turning to `COc1ccc(C(=O)Nc2ccc(F)c([C@@]3(CF)N=C(N)O[C@@H]4C[C@@H]43)c2F)nc1` [Example 79, N-(3-((1R,5S,6R)-3-amino-5-(fluoromethyl)-2-oxa-4-azabicyclo[4.1.0]hept-3-en-5-yl)-2,4-difluorophenyl)-5-methoxypicolinamide], the IC50 in test [1] stood at 0.12 µM; in test [2], 942 µM; in test [3] it was 3.04 µM.

In the case of `COC[C@]1(c2cc(NC(=O)c3cnc(OC)cn3)ccc2F)N=C(N)O[C@@H]2C[C@@H]21` [Example 80, N-(3-((1R,5S,6R)-3-amino-5-(methoxymethyl)-2-oxa-4-azabicyclo[4.1.0]hept-3-en-5-yl)-4-fluorophenyl)-5-methoxypyrazine-2-carboxamide], the IC50 was 0.183 µM in test [1], above 400 µM in test [2] and 7.95 µM in test [3].

With `COC[C@@]1(c2cc(NC(=O)c3cnc(OC)cn3)ccc2F)N=C(N)O[C@H]2C[C@H]21` [Example 81, N-(3-((1S,5R,6S)-3-amino-5-(methoxymethyl)-2-oxa-4-azabicyclo[4.1.0]hept-3-en-5-yl)-4-fluorophenyl)-5-methoxypyrazine-2-carboxamide], the results for the IC50 in test [1], in test [2] and in test [3] were above 15.6 µM, above 400 µM and above 40 µM, respectively.

Consider `COC[C@]1(c2cc(NC(=O)c3ccc(Cl)cn3)ccc2F)N=C(N)O[C@@H]2C[C@@H]21` [Example 82, N-(3-((1R,5S,6R)-3-amino-5-(methoxymethyl)-2-oxa-4-azabicyclo[4.1.0]hept-3-en-5-yl)-4-fluorophenyl)-5-chloropicolinamide], for which the figures for the IC50 in test [1], in test [2] and in test [3] were 0.157 µM, above 400 µM and 2.74 µM, respectively.

For `COC[C@@]1(c2cc(NC(=O)c3ccc(Cl)cn3)ccc2F)N=C(N)O[C@H]2C[C@H]21` [Example 83, N-(3-((1 S,5R,6S)-3-amino-5-(methoxymethyl)-2-oxa-4-azabicyclo[4.1.0]hept-3-en-5-yl)-4-fluorophenyl)-5-chloropicolinamide], the figures for the IC50 in test [1], in test [2] and in test [3] were above 15.6 µM, above 400 µM and above 40 µM, respectively.

Take `COc1cnc(C(=O)Nc2ccc(F)c([C@@]3(C(F)F)N=C(N)O[C@@H]4C[C@@H]43)c2)c(OC)n1` [Example 84, N-(3-((1R,5S,6R)-3-amino-5-(difluoromethyl)-2-oxa-4-azabicyclo[4.1.0]hept-3-en-5-yl)-4-fluorophenyl)-3,5-dimethoxypyrazine-2-carboxamide]: the IC50 in test [1] is 0.361 µM; in test [2], above 400 µM; in test [3], 0.494 µM.

In the case of `COc1cnc(C(=O)Nc2cc(Cl)c(F)c([C@@]3(CF)N=C(N)O[C@@H]4C[C@@H]43)c2)cn1` [Example 85, N-(3-((1R,5S,6R)-3-amino-5-(fluoromethyl)-2-oxa-4-azabicyclo[4.1.0]hept-3-en-5-yl)-5-chloro-4-fluorophenyl)-5-methoxypyrazine-2-carboxamide], the IC50 in test [1] stood at 0.0067 µM; in test [2], 373 µM; in test [3] it was 0.034 µM.

For the compound `COc1cc(C#N)cnc1C(=O)Nc1cc(Cl)c(F)c([C@@]2(CF)N=C(N)O[C@@H]3C[C@@H]32)c1` [Example 86, N-(3-((1R,5S,6R)-3-amino-5-(fluoromethyl)-2-oxa-4-azabicyclo[4.1.0]hept-3-en-5-yl)-5-chloro-4-fluorophenyl)-5-cyano-3-methoxypicolinamide], the IC50 in test [1] was found to be 0.0094 µM; in test [2], 892 µM; in test [3], 0.0759 µM.
